Measurements from ChEMBL document CHEMBL5257045, “Antiparasitic Activity of Two Natural Terpenes from Salvia cuspidata against Leishmania amazonensis” (2023).
“And” between values parts separate entries of the source, which are not always exact repeats. Identical values can stand only once. The source made the active and inactive calls. No cut-off for these calls is given here.

Key:
[1] = test system: Leishmania amazonensis; assay: Antileishmanial activity against Leishmania amazonensis promastigotes infected in BALB/c mouse assessed as reduction of IgG level at 400 mg/kg per day, ip administered for 30 days measured at 10 week by ELISA assay; assay type: functional, organism-based; settings: time 30.0 day
[2] = test system: Leishmania amazonensis; assay: Antileishmanial activity against Leishmania amazonensis promastigotes infected in BALB/c mouse assessed as reduction of parasite burden at 400 mg/kg per day, ip administered for 30 days measured at 10 week by limit dilution assay; assay type: functional, organism-based; settings: time 30.0 day
[3] = test system: Leishmania amazonensis; assay: Antileishmanial activity against Leishmania amazonensis promastigotes infected in BALB/c mouse assessed as reduction in RHLF lesion size at 400 mg/kg per day, ip administered for 30 days; assay type: functional, organism-based; settings: time 30.0 day
[4] = test system: Leishmania amazonensis; assay: Antileishmanial activity against Leishmania amazonensis promastigotes infected in BALB/c mouse assessed as reduction of IgG1 level at 400 mg/kg per day, ip administered for 30 days measured at 10 week by ELISA assay; assay type: functional, organism-based; settings: time 30.0 day
[5] = test system: Leishmania amazonensis; assay: Antileishmanial activity against Leishmania amazonensis promastigotes infected in BALB/c mouse assessed as reduction of splenic index at 400 mg/kg per day, ip administered for 30 days measured at 10 week; assay type: functional, organism-based; settings: time 30.0 day
[6] = test system: Leishmania amazonensis; assay: Antileishmanial activity against Leishmania amazonensis promastigotes infected in BALB/c mouse assessed as wound closure at 400 mg/kg per day, ip administered for 30 days; assay type: functional, organism-based; settings: time 30.0 day
[7] = test system: Leishmania amazonensis; assay: Antileishmanial activity against Leishmania amazonensis MHOM/VE/84/MEL promastigotes assessed as parasite mortality at 29.2 uM measured after 1 day by dye exclusion method (reference value: 14.5 +/- 3.5); assay type: functional; settings: 24 h
[8] = test system: Leishmania amazonensis; assay: Antileishmanial activity against Leishmania amazonensis MHOM/VE/84/MEL promastigotes assessed as parasite mortality at 4.3 uM measured after 1 day by dye exclusion method (reference value: 14.5 +/- 3.5); assay type: functional; settings: 24 h
[9] = test system: Leishmania amazonensis; assay: Antileishmanial activity against Leishmania amazonensis promastigotes infected in BALB/c mouse assessed as reduction of IgG1 level at 1 mg/kg per day administered once a week for 4 weeks measured at 10 week by ELISA assay; assay type: functional, organism-based
[10] = test system: Leishmania amazonensis; assay: Antileishmanial activity against Leishmania amazonensis MHOM/VE/84/MEL promastigotes assessed as parasite mortality at 14.3 uM measured after 2 day by dye exclusion method (reference value: 11.6 +/- 3.3); assay type: functional; settings: 48 h
[11] = test system: Leishmania amazonensis; assay: Antileishmanial activity against Leishmania amazonensis MHOM/VE/84/MEL promastigotes assessed as parasite mortality at 14.3 uM measured after 1 day by dye exclusion method (reference value: 14.5 +/- 3.5); assay type: functional; settings: 24 h
[12] = test system: Leishmania amazonensis; assay: Induction of ROS generation in Leishmania amazonensis promastigotes at 4.3 to 29.2 uM incubated for 48 hrs followed by probe addition measured after 1 hr by H2DCFDA probe based fluorometry analysis; assay type: functional, organism-based; settings: dose 4.3-29.2 µM, time 49.0 hrs
[13] = test system: Leishmania amazonensis; assay: Antileishmanial activity against Leishmania amazonensis promastigotes infected in BALB/c mouse assessed as reduction of parasite burden at 1 mg/kg per day administered once a week for 4 weeks measured at 10 week by limit dilution assay; assay type: functional, organism-based
[14] = test system: Leishmania amazonensis; assay: Antileishmanial activity against Leishmania amazonensis MHOM/VE/84/MEL promastigotes assessed as parasite mortality at 29.2 uM measured after 2 day by dye exclusion method (reference value: 11.6 +/- 3.3); assay type: functional; settings: 48 h
[15] = test system: Leishmania amazonensis; assay: Antileishmanial activity against Leishmania amazonensis promastigotes infected in BALB/c mouse assessed as reduction in RHLF lesion size at 1 mg/kg per day administered once a week for 4 weeks measured at 10 week; assay type: functional, organism-based
[16] = test system: Leishmania amazonensis; assay: Antileishmanial activity against Leishmania amazonensis MHOM/VE/84/MEL promastigotes assessed as parasite mortality at 4.3 uM measured after 2 day by dye exclusion method (reference value: 11.6 +/- 3.3); assay type: functional; settings: 48 h
[17] = test system: Leishmania amazonensis; assay: Induction of ROS generation in Leishmania amazonensis promastigotes assessed as reduction in endogenous GSH level at 4.3 to 29.2 uM incubated for 3 hrs by absorbance based analysis; assay type: functional, organism-based; settings: dose 4.3-29.2 µM
[18] = test system: Leishmania amazonensis; assay: Antileishmanial activity against Leishmania amazonensis promastigotes infected in BALB/c mouse assessed as reduction of IgG level at 1 mg/kg per day administered once a week for 4 weeks measured at 10 week by ELISA assay; assay type: functional, organism-based
[19] = test system: Leishmania amazonensis; assay: Antileishmanial activity against Leishmania amazonensis promastigotes infected in BALB/c mouse assessed as reduction of splenic index at 1 mg/kg per day administered once a week for 4 weeks measured at 10 week; assay type: functional, organism-based
[20] = test system: Leishmania amazonensis; assay: Induction of ROS generation in Leishmania amazonensis promastigotes assessed as reduction in mitochondrial activity at 4.3 to 29.2 uM incubated for 48 hrs by MTT assay; assay type: functional, organism-based; settings: dose 4.3-29.2 µM
[21] = test system: Leishmania amazonensis; assay: Antileishmanial activity against Leishmania amazonensis MHOM/VE/84/MEL promastigotes assessed as parasite mortality at 38.4 uM measured after 1 day by dye exclusion method (reference value: 14.5 +/- 3.5); assay type: functional; settings: 24 h
[22] = test system: Leishmania amazonensis; assay: Antileishmanial activity against Leishmania amazonensis MHOM/VE/84/MEL promastigotes assessed as parasite mortality at 38.4 uM measured after 2 day by dye exclusion method (reference value: 11.6 +/- 3.3); assay type: functional; settings: 48 h
[23] = test system: Leishmania donovani; assay: Antileishmanial activity against Leishmania donovani MHOM/IN/83/AG83 promastigotes infected in BALB/c mouse assessed as reduction of parasite burden in spleen at 5 to 10 mg/kg per day; assay type: functional, organism-based; settings: dose 5-10 mg/kg

| Molecule | mortality at 29.2 µM [7] [%] | mortality [8] | Activity [9] | mortality at 14.3 µM [10] [%] | mortality at 14.3 µM [11] [%] | Activity [12] | Activity [13] | mortality at 29.2 µM [14] [%] | Activity [15] | mortality at 4.3 µM [16] [%] | Activity [17] | Activity [18] | Activity [19] | Activity [20] | further results |
| --- | --- | --- | --- | --- | --- | --- | --- | --- | --- | --- | --- | --- | --- | --- | --- |
| MEGLUMINE ANTIMONATE |  |  |  |  |  |  |  |  |  |  |  |  |  |  | Activity [1]: Active; Activity [2]: Active; Activity [3]: Active; Activity [4]: Active; Activity [5]: Active; Activity [6]: inactive |
| CC(C)C1=C(O)C(=O)C2=C(C=C[C@H]3[C@]4(CCC[C@]3(C)C(=O)O4)C2)C1=O | 65 | 10% and 26.5% | Active | 51.5 | 47 | Active | Active | 77.5 | Active | 26.5 | Active | Active | Active | Active |  |
| CC(=O)N1CCN(c2ccc(OCC3COC(Cn4ccnc4)(c4ccc(Cl)cc4Cl)O3)cc2)CC1 (configuration not stated) [KETOCONAZOLE] |  |  |  |  |  |  |  |  |  |  |  |  |  |  | mortality at 38.4 µM [21]: 48.5%; mortality at 38.4 µM [22]: 79.4% |
| C[C@@H]1CC[C@H]2[C@@H](C)C(=O)O[C@@H]3O[C@@]4(C)CC[C@@H]1[C@]32OO4 |  |  |  |  |  |  |  |  |  |  |  |  |  |  | Activity [23]: Active |
| C[C@@]12CCC[C@]3(COC1=O)CC1=C(C=C[C@@H]32)C(=O)C=C(O)C1=O | 96.5 | 33.5% and 87.5% | Active | 92 | 55 | Active | Active | 98.5 | Active | 87.5 | Active | Active | Active | Active |  |
